Results reported in paper PMC10178864, “Identification, Baculoviral Expression, and Biochemical Characterization of a Novel Cholinesterase of Amblyomma americanum (Acari: Ixodidae)” (International Journal of Molecular Sciences, 2023).
Where two headings read alike, the source gives them in different places.

Legend:
[1] = system: T1, rAaChE1 (recombinant AaChE1, A. americanum cholinesterase 1); assay: cholinesterase assay, absorbance at […] nm, microplate; format: biochemical, Amblyomma americanum; conditions: culture supernatant of baculovirus-infected Sf21 cells
T1 construct: pBlueBac4.5/V5-His in Sf21 cells (reverse primer appears to carry the native stop codon); unpurified culture supernatant

[2] = target: T1, rAaChE1 (recombinant AaChE1, A. americanum cholinesterase 1); assay: cholinesterase inhibition assay, absorbance at […] nm; format: biochemical, Amblyomma americanum; parameters: unit not given here; conditions: 15 min preincubation, culture supernatant

| SMILES | (IC50) ^2 / rAaChE1 (ATCh Substrate) ([2]; covalent) | other results |
| --- | --- | --- |
| CC(=O)SCC[N+](C)(C)C [ATCh, acetylthiocholine] | – | Km ([1]; read-out: KM): 6.39 µM |
| C=CC[N+](C)(C)c1ccc(CCC(=O)CCc2ccc([N+](C)(C)CC=C)cc2)cc1 [BW284c51, 1,5-Bis(4-allyldimethylammoniumphenyl)pentan-3-one dibromide] | – | (IC50) ^2 / rAaChE1 (ATCh Substrate) [2]: 2.96 × 10^−7 (2.50–3.50 × 10^−7) |
| CCCC(=O)SCC[N+](C)(C)C [BuTCh, butyrylthiocholine] | – | Km ([1]; read-out: apparent KM): 14.2 µM |
| CCOP(=O)(OCC)Oc1ccc2c(C)c(Cl)c(=O)oc2c1 [Coroxon] | 2.35 × 10^−11 (1.93–2.84 × 10^−11) | – |
| CNC(=O)Oc1ccc2c(c1)[C@]1(C)CCN(C)[C@@H]1N2C [Eserine] | 2.28 × 10^−10 (2.37–3.26 × 10^−10) | – |
| CC(C)NP(=O)(NC(C)C)OP(=O)(NC(C)C)NC(C)C [Iso-OMPA] | 3.48 × 10^−05 (2.76–4.43 × 10^−5) | – |
| CCOC(=O)CC(SP(=O)(OC)OC)C(=O)OCC (stereo not shown) [Malaoxon] | 2.77 × 10^−8 (2.45–3.14 × 10^−8) | – |
